This is an account of results in the NIST ThermoML archive (doi:10.1021/je7000039).

Molecules are shown by their SMILES. Numbers after ± are expanded uncertainties.

The conditions of the series: Crystal; DTA.

Turning to `C[C@@H]1CC[C@H]2[C@@H](C)C(=O)O[C@@H]3O[C@@]4(C)CC[C@@H]1[C@]32OO4` [artemisinin], the Normal melting temperature was 148.28 ± 0.5 °C.

For the compound `C[C@H]1[C@H](OC(=O)CCC(=O)O)O[C@@H]2O[C@@]3(C)CC[C@H]4[C@H](C)CC[C@@H]1[C@@]24OO3` [artesunate], the Normal melting temperature is 139.66 ± 0.5 °C.

As to `CO[C@H]1O[C@@H]2O[C@@]3(C)CC[C@H]4[C@H](C)CC[C@@H]([C@H]1C)[C@@]24OO3` [beta-artemether], the Normal melting temperature was 83.98 ± 0.5 °C.
